Values joined by “and” are separate entries in the source; they are usually repeats but may differ in a detail not shown here. Equal values may be shown once. Inconclusive results and toxic doses are left out.
Tested on: CD2F1 mice, L1210 leukemia ip, survival T/C
Experiment: NCI In Vivo Anticancer Drug Screen. Data for tumor model L1210 Leukemia (intraperitoneal) in CD2F1 (CDF1) mice
Conditions: endpoint: mean survival time, higher = longer survival
How it was run: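 Mice carrying a transplanted tumor received test compound or vehicle alone. The value is the measurement in the treated group divided by that in the vehicle-treated control group.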

[1] = dose: 100.0 mg/kg/injection, schedule: Q04DX003 (ip), vehicle: saline with Tween-80
[2] = dose: 200.0 mg/kg/injection, schedule: Q04DX003 (ip), vehicle: saline with Tween-80
[3] = dose: 400.0 mg/kg/injection, schedule: Q04DX003 (ip), vehicle: saline with Tween-80
[4] = dose: 100.0 mg/kg/injection, schedule: Q01DX009 (ip), vehicle: saline with Tween-80
[5] = dose: 200.0 mg/kg/injection, schedule: Q01DX009 (ip), vehicle: saline with Tween-80
[6] = dose: 400.0 mg/kg/injection, schedule: Q01DX009 (ip), vehicle: saline with Tween-80

## Cc1cc(=O)[nH]c2c(C)cc(Cl)cc12
[1]
  T/C: 106 % of control
[2]
  T/C: 109 % of control
[3]
  T/C: 97 % of control

## COC1CC(C)OC(OC2C(C)/C=C/C(=O)OC(C)C(COC3OC(C)C(O)C(OC)C3OC)C3OC3/C=C/C(=O)C(C)(O)CC2C)C1O (stereo unspecified)
dose: 125.0 mg/kg/injection, schedule: Q01DX001 (ip), vehicle: saline sonified
  T/C: 100 % of control
dose: 250.0 mg/kg/injection, schedule: Q01DX001 (ip), vehicle: saline sonified
  T/C: 101 % of control
dose: 500.0 mg/kg/injection, schedule: Q01DX001 (ip), vehicle: saline sonified
  T/C: 95 % of control

## COC(=O)c1ccccc1N=NNc1ccc(C(F)(F)F)c([N+](=O)[O-])c1
[4]
  T/C: 103 % of control
[5]
  T/C: 95 % of control
[6]
  T/C: 95 % of control

## COC1C(O)CC(OC2CC(OC3CC(O[C@@H]4C(=O)c5c(cc6cc(OC7CC(OC8CC(O)C(O)C(C)O8)C(O)C(C)O7)c(C)c(O)c6c5O)C[C@H]4[C@H](OC)C(=O)[C@@H](O)[C@@H](C)O)OC(C)C3O)OC(C)C2O)OC1C (stereo partly specified)
dose: 0.09 mg/kg/injection, schedule: Q01DX009 (ip), vehicle: saline
  T/C: 97 % of control
dose: 0.18 mg/kg/injection, schedule: Q01DX009 (ip), vehicle: saline
  T/C: 103 % of control
dose: 0.37 mg/kg/injection, schedule: Q01DX009 (ip), vehicle: saline
  T/C: 111 % of control
dose: 0.75 mg/kg/injection, schedule: Q01DX009 (ip), vehicle: saline
  T/C: 104 % of control
dose: 1.5 mg/kg/injection, schedule: Q01DX009 (ip), vehicle: saline
  T/C: 95 % of control
dose: 375.0 micrograms/kg/injection, schedule: Q01DX009 (ip), vehicle: saline
  T/C: 110 % of control
dose: 750.0 micrograms/kg/injection, schedule: Q01DX009 (ip), vehicle: saline
  T/C: 115 % of control
dose: 1500.0 micrograms/kg/injection, schedule: Q01DX009 (ip), vehicle: saline
  T/C: 109 % of control
dose: 3000.0 micrograms/kg/injection, schedule: Q01DX009 (ip), vehicle: saline
  T/C: 104 % of control

## CC(C)C(O)C(C)[N+](=O)[O-] (stereo unspecified)
dose: 25.0 mg/kg/injection, schedule: Q01DX001 (ip), vehicle: saline with Tween-80
  T/C: 86 % of control
dose: 50.0 mg/kg/injection, schedule: Q01DX001 (ip), vehicle: saline with Tween-80
  T/C: 96 % of control

## CN1C(=O)C(=Cc2ccc(O)cc2)C(=O)N(C)C1=O
dose: 12.5 mg/kg/injection, schedule: Q01DX009 (ip), vehicle: saline with Tween-80
  T/C: 96 % of control and 100 % of control
dose: 25.0 mg/kg/injection, schedule: Q01DX009 (ip), vehicle: saline with Tween-80
  T/C: 102 % of control and 107 % of control
dose: 50.0 mg/kg/injection, schedule: Q01DX009 (ip), vehicle: saline with Tween-80
  T/C: 100 % of control and 108 % of control
[4]
  T/C: 104 % of control and 111 % of control
[5]
  T/C: 102 % of control and 106 % of control
[6]
  T/C: 106 % of control and 111 % of control

## NC(=O)N(CCCl)N=O
dose: 1.0 mg/kg/injection, schedule: Q01DX007 (ip), vehicle: saline
  T/C: 292 % of control
dose: 1.0 mg/kg/injection, schedule: Q01DX009 (ip), vehicle: saline
  T/C: 273 % of control
dose: 1.0 mg/kg/injection, schedule: Q03DX003 (ip), vehicle: saline
  T/C: 187 % of control
dose: 1.0 mg/kg/injection, schedule: Q04DX003 (ip), vehicle: saline
  T/C: 188 % of control
dose: 2.0 mg/kg/injection, schedule: Q01DX007 (ip), vehicle: saline
  T/C: 242 % of control
dose: 2.0 mg/kg/injection, schedule: Q01DX009 (ip), vehicle: saline
  T/C: 220 % of control
dose: 2.0 mg/kg/injection, schedule: Q03DX003 (ip), vehicle: saline
  T/C: 286 % of control
dose: 2.0 mg/kg/injection, schedule: Q04DX003 (ip), vehicle: saline
  T/C: 284 % of control
dose: 4.0 mg/kg/injection, schedule: Q01DX007 (ip), vehicle: saline
  T/C: 105 % of control
dose: 4.0 mg/kg/injection, schedule: Q01DX009 (ip), vehicle: saline
  T/C: 101 % of control
dose: 4.0 mg/kg/injection, schedule: Q04DX003 (ip), vehicle: saline
  T/C: 308 % of control

## CCOC(=O)c1[nH]c(=S)n(Cc2ccccc2)c1C(=O)OCC
dose: 50.0 mg/kg/injection, schedule: Q04DX003 (ip), vehicle: saline with Tween-80
  T/C: 103 % of control
[1]
  T/C: 108 % of control
[2]
  T/C: 97 % of control

## O=C(O)CCN1CCS(=O)(=O)C1=S
dose: 75.0 mg/kg/injection, schedule: Q01DX001 (ip), vehicle: other
  T/C: 101 % of control
dose: 150.0 mg/kg/injection, schedule: Q01DX001 (ip), vehicle: other
  T/C: 95 % of control
dose: 300.0 mg/kg/injection, schedule: Q01DX001 (ip), vehicle: other
  T/C: 104 % of control

## CC1=CC(C)N(C(=O)c2ccc(Cl)cc2)CCN1C(=O)c1ccc(Cl)cc1 (stereo unspecified)
[1]
  T/C: 98 % of control
[2]
  T/C: 102 % of control
[3]
  T/C: 102 % of control
